Laboratory results as given in US8575145B2, “Triazolopyridine compounds as PIM kinase inhibitors” (Array BioPharma Inc., priority 2008, dated 2013).
Structures can show the parent of a compound that is named as a salt. Where two headings read alike, the source gives them in different places.

How the values were obtained:
PIM-1 = PIM-1 (Homo sapiens (Human), UniProt P11309); assay: PIM-1 Enzyme Assay; assay type: biochemical
Method: The amount of radiolabeled product is then measured by liquid scintillation counting. The final buffer conditions were as follows: 20 mM K^+MOPS, pH 7.4, 10 mM MgCl2, 0.005% Tween-20, 1 mM DTT. […] Incubations were carried out for 60 min at 22° C. and quenched with 75 μL of 200 mM H3PO4, filtered through a Whatman P81 plate and washed (1×200 μL and 5×100 μL ) with 200 mM H3PO4. Liquid scintillation cocktail (50 μL ) was then added per well, and the plate was counted for 30 s/well using a TopCount NXT.
One-μL aliquots of these were then transferred to the assay mixtures above to give a final concentration of DMSO of 2%. […] For each plate, percent of control (POC) values were calculated for each well. IC50's were estimated from the POC's using a standard 4-parameter logistic model. The IC50 is defined as the concentration of inhibitor at which the POC equals 50 for the fitted curve.

[1] = biological target: GST-tagged recombinant full-length human PIM-2 (Homo sapiens (Human), UniProt Q9P1W9); assay: PIM-2 Enzyme Assay
[2] = read-out: PIM-2 IC50, 4 μM ATP, […] PIM-2
[3] = read-out: PIM-2 IC50, 4 μM ATP, […] PIM-2, dihydrochloride

Sequence of PIM-1 (P11309 whole entry, species assumed): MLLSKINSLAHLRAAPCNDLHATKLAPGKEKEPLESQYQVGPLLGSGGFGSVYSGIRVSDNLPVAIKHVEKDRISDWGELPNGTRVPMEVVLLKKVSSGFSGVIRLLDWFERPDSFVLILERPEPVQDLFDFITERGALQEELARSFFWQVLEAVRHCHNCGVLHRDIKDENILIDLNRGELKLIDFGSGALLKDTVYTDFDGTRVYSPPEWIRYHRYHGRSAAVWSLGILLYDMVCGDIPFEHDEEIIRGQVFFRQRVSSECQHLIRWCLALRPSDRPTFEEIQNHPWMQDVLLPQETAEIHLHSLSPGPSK
Sequence of GST-tagged recombinant full-length human PIM-2 (Q9P1W9 whole entry): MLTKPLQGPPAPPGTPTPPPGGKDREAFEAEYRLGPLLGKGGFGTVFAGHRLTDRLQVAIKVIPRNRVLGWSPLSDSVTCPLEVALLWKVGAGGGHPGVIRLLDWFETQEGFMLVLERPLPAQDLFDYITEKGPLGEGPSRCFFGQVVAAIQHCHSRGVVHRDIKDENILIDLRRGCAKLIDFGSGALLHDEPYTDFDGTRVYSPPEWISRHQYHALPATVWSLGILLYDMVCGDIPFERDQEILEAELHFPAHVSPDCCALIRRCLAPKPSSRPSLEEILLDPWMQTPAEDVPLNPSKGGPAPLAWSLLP

| Structure (SMILES) | IC50 (PIM-1; 35 μM ATP, 0.25 nM PIM-1) | IC50 [1, 2] | other results |
| --- | --- | --- | --- |
| Nc1nccc(Oc2cccc3ccc(-c4nnc5ccccn45)nc23)n1 [Example 76, 4-(2-([1,2,4]triazolo[4,3-a]pyridin-3-yl)quinolin-8-yloxy)pyrimidin-2-amine] | 0.648 µM | 10000 nM |  |
| c1cc(OCc2ccncc2)c2nc(-c3nnc4ccccn34)ccc2c1 [Example 45, 2-([1,2,4]triazolo[4,3-a]pyridin-3-yl)-8-(pyridin-4-ylmethoxy)quinoline] | 0.0269 µM | 1730 nM |  |
| c1cc(Oc2ccncc2)c2nc(-c3nnc4ccccn34)ccc2c1 [Example 74, 2-([1,2,4]triazolo[4,3-a]pyridin-3-yl)-8-(pyridin-4-yloxy)quinoline] | 0.151 µM | 1990 nM |  |
| F[C@@H]1CNCC[C@@H]1Oc1cccc2ccc(-c3nnc4ccc(C5CC5)cn34)nc12 (relative stereo) [Example 80, 2-(6-cyclopropyl-[1,2,4]triazolo[4,3-a]pyridin-3-yl)-8-((cis)-3-fluoropiperidin-4-yloxy)quinoline dihydrochloride] | 0.002 µM | 1160 nM |  |
| N[C@H]1CC[C@@H](Oc2cccc3ccc(-c4nnc5ccccn45)nc23)CC1 [Example 42, (cis)-4-(2-([1,2,4]triazolo[4,3-a]pyridin-3-yl)quinolin-8-yloxy)cyclohexanamine] |  |  | IC50 ([1]; PIM-2 IC50 (nM), 4 μM ATP, […] PIM-2): 22 nM |
| Fc1ccn2c(-c3ccc4cccc(OC5CCNCC5F)c4n3)nnc2c1 (stereo not drawn) [Example 60, cis-2-(7-fluoro-[1,2,4]triazolo[4,3-a]pyridin-3-yl)-8-3-fluoropiperidin-4-yloxy)quinoline] | 0.026 µM | 1760 nM |  |
| c1cncc(COc2cccc3ccc(-c4nnc5ccccn45)nc23)c1 [Example 44, 2-([1,2,4]triazolo[4,3-a]pyridin-3-yl)-8-(pyridin-3-ylmethoxy)quinoline] | 0.063 µM | 7470 nM |  |
| OC1(COc2cccc3ccc(-c4nnc5ccccn45)nc23)CCCNCC1 (stereo not shown) [Example 116, 4-((2-([1,2,4]triazolo[4,3-a]pyridin-3-yl)quinolin-8-yloxy)methyl)azepan-4-ol bis-trifluoroacetate] | 0.0118 µM |  | IC50 ([1]; read-out: PIM-2 IC50): 1000 nM |
| FC1CNCCC1Oc1cccc2ccc(-c3nnc4ccccn34)nc12 (single isomer, unassigned) [Example 94, 2-([1,2,4]triazolo[4,3-a]pyridin-3-yl)-8-((cis)-3-fluoropiperidin-4-yloxy)quinoline dihydrochloride] |  |  | IC50 (PIM-1; dihydrochloride): 0.0194 µM; IC50 [1, 3]: 1000 nM |
| CN(C)CC(C)(C)COc1cccc2ccc(-c3nnc4ccccn34)nc12 [Example 21, 3-(2-([1,2,4]triazolo[4,3-a]pyridin-3-yl)quinolin-8-yloxy)-N,N,2,2-tetramethylpropan-1-amine] |  | 1350 nM |  |
| FC1CNCCC1Oc1cccc2ccc(-c3nnc4ccccn34)nc12 (single isomer, unassigned) [Example 96, 2-([1,2,4]triazolo[4,3-a]pyridin-3-yl)-8-((trans)-3-fluoropiperidin-4-yloxy)quinoline dihydrochloride] |  |  | IC50 (PIM-1; dihydrochloride): 0.0108 µM; IC50 [1, 3]: 1000 nM |
| Fc1ccc2nnc(-c3ccc4cccc(O[C@@H]5CCNCC[C@H]5F)c4n3)n2c1 (relative stereo) [Example 102, 2-(6-fluoro-[1,2,4]triazolo[4,3-a]pyridin-3-yl)-8-((trans)-5-fluoroazepan-4-yloxy)quinoline dihydrochloride] |  | 440 nM | IC50 (PIM-1): 0.0049 µM |
| CC(C)(CNCC(F)F)COc1cccc2ccc(-c3nnc4ccccn34)nc12 [Example 135, 3-(2-([1,2,4]triazolo[4,3-a]pyridin-3-yl)quinolin-8-yloxy)-N-(2,2-difluoroethyl)-2,2-dimethylpropan-1-amine hydrochloride] | 0.0126 µM | 506 nM |  |
| Fc1ccc2nnc(-c3ccc4cccc(OCC5(F)CCNCC5)c4n3)n2c1 [Example 103, 2-(6-fluoro-[1,2,4]triazolo[4,3-a]pyridin-3-yl)-8-((4-fluoropiperidin-4-yl)methoxy)quinoline dihydrochloride] | 0.0014 µM |  | IC50 ([1]; read-out: PIM-2 IC50): 65.6 nM |
| Fc1cc(OCC2(F)CNC2)c2nc(-c3nnc4ccccn34)ccc2c1 [Example 108, 2-([1,2,4]triazolo[4,3-a]pyridin-3-yl)-6-fluoro-8-((3-fluoroazetidin-3-yl)methoxy)quinoline Dihydrochloride] |  | 489 nM | IC50 (PIM-1): 0.0073 µM |
| FC1(COc2cccc3ccc(-c4nnc5ccccn45)nc23)CNC1 [Example 107, 2-([1,2,4]triazolo[4,3-a]pyridin-3-yl)-8-((3-fluoroazetidin-3-yl)methoxy)quinoline dihydrochloride] | 0.0094 µM | 1000 nM |  |
| CCC(CO)COc1cccc2ccc(-c3nnc4ccccn34)nc12 (stereo not shown) [Example 130] | 0.0058 µM | 1000 nM |  |

More lines, in order of falling IC50 [1, 2], values ahead:

| IC50 (PIM-1; 35 μM ATP, 0.25 nM PIM-1) | IC50 [1, 2] | Structure (SMILES) | other results |
| --- | --- | --- | --- |
| 0.0049 µM | 1000 nM | NCC1(COc2cccc3ccc(-c4nnc5ccccn45)nc23)CCCC1 [Example 129, (1-((2-([1,2,4]triazolo[4,3-a]pyridin-3-yl)quinolin-8-yloxy)methyl)cyclopentyl)methanamine] |  |
|  | 1000 nM | CCC(CC)(CO)COc1cccc2ccc(-c3nnc4ccccn34)nc12 [Example 131] |  |
| 0.031 µM | 1000 nM | F[C@@H]1CNCC[C@@H]1Oc1cccc2ccc(-c3nnc4cc(Cl)ccn34)nc12 [Example 124, 2-(7-chloro-[1,2,4]triazolo[4,3-a]pyridin-3-yl)-8-((3R,4S)-3-fluoropiperidin-4-yloxy)quinoline] |  |
| 0.0007 µM | 661 nM | F[C@@H]1CCNCC[C@H]1Oc1cccc2ccc(-c3nnc4ccc(C5CC5)cn34)nc12 (relative stereo) [Example 98, 2-(6-cyclopropyl-[1,2,4]triazolo[4,3-a]pyridin-3-yl)-8-((trans)-5-fluoroazepan-4-yloxy)quinoline dihydrochloride] |  |
| 0.004 µM | 484 nM | COC[C@@H]1CC(Oc2cccc3ccc(-c4nnc5ccccn45)nc23)CCN1 (stereo partly shown) [Example 57] |  |
| 0.001 µM | 429 nM | COC1(COc2cccc3ccc(-c4nnc5cc(C)ccn45)nc23)CCNCC1 [Example 125, 8((4-methoxypiperidin-4-yl)methoxy)-2-(7-methyl-[1,2,4]triazolo[4,3-a]pyridin-3-yl)quinoline di-trifluoroacetate] |  |
|  | 362 nM | CC(C)(CNCC(F)(F)F)COc1cccc2ccc(-c3nnc4ccccn34)nc12 [Example 136, 3-(2-([1,2,4]triazolo[4,3-a]pyridin-3-yl)quinolin-8-yloxy)-2,2-dimethyl-N-(2,2,2-trifluoroethyl)propan-1-amine] |  |
| 0.0014 µM | 222 nM | COC1(COc2cc(F)cc3ccc(-c4nnc5ccccn45)nc23)CCCN(CCO)CC1 (stereo not shown) [Example 115, 2-(4-42-([1,2,4]triazolo[4,3-a]pyridin-3-yl)-6-fluoroquinolin-8-yloxy)methyl)-4-methoxyazepan-1-yl)ethanol dihydrochloride] |  |
| 0.004 µM | 193 nM | NC(=O)CN1CCC(F)(COc2cccc3ccc(-c4nnc5ccccn45)nc23)CC1 [Example 83, 2-(4-((2-([1,2,4]triazolo[4,3-a]pyridin-3-yl)quinolin-8-yloxy)methyl)-4-fluoropiperidin-1-yl)acetamide] |  |
|  | 182 nM | NCC(F)(F)COc1cccc2ccc(-c3nnc4ccccn34)nc12 [Example 41, 3-(2-([1,2,4]triazolo[4,3-a]pyridin-3-yl)quinolin-8-yloxy)-2,2-difluoropropan-1-amine] |  |
| 0.0019 µM | 163 nM | COc1ccc2nnc(-c3ccc4cc(F)cc(OCC5(F)CCNCC5)c4n3)n2c1 [Example 110, 6-fluoro-8-((4-fluoropiperidin-4-yl)methoxy)-2-(6-methoxy-[1,2,4]triazolo[4,3-a]pyridin-3-yl)quinoline dihydrochloride] |  |
|  | 144 nM | CC(C)(C)COc1cccc2ccc(-c3nnc4ccccn34)nc12 [Example 23, 2-([1,2,4]triazolo[4,3-a]pyridin-3-yl)-8-(neopentyloxy)quinoline] |  |
| 0.0016 µM | 142 nM | FC1(COc2cccc3ccc(-c4nnc5ccccn45)nc23)CCCNC1 (stereo not shown) [Example 133, 2-([1,2,4]triazolo[4,3-a]pyridin-3-yl)-8-((3-fluoropiperidin-3-yl)methoxy)quinoline] |  |
| 0.0007 µM | 86 nM | COC1(COc2cc(F)cc3ccc(-c4nnc5ccccn45)nc23)CCCNCC1 (stereo not shown) [Example 114, 2-([1,2,4]triazolo[4,3-a]pyridin-3-yl)-6-fluoro-8-((4-methoxyazepan-4-yl)methoxy)quinoline bis-trifluoroacetate] |  |
|  | 76.5 nM | CC(C)(CCN)COc1cccc2ccc(-c3nnc4ccccn34)nc12 [Example 132, 4-(2-([1,2,4]triazolo[4,3-a]pyridin-3-yl)quinolin-8-yloxy)-3,3-dimethylbutan-1-amine] |  |
| 0.0002 µM | 55 nM | FC1(COc2cccc3ccc(-c4nnc5ccc(C6CC6)cn45)nc23)CCNCC1 [Example 79, 2-(6-cyclopropyl-[1,2,4]triazolo[4,3-a]pyridin-3-yl)-8-((4-fluoropiperidin-4-yl)methoxy)quinoline dihydrochloride] |  |
| 0.00055 µM | 26 nM | CC(C)(CN)COc1cc(F)cc2ccc(-c3nnc4ccccn34)nc12 [Example 39, 3-(2-([1,2,4]triazolo[4,3-a]pyridin-3-yl)-6-fluoroquinolin-8-yloxy)-2,2-dimethylpropan-1-amine] |  |
